Here are results for four compounds from US8993568B2, “Morpholinyl derivatives useful as MOGAT-2 inhibitors” (Eli Lilly and Company, priority 2012, dated 2015).

Assay [1] deals with human MOGAT-2 (Homo sapiens (Human), UniProt Q3SYC2). The assay can be described thus: MOGAT-2 Cell Assay (Caco-2 cells stably transfected with human MOGAT-2, HDG substrate, LC-MS). It counts as cell-based. The note with it: Caco-2 cells expressing human MOGAT-2; value (Std Dev., n).
Experimental: Inhibitory Activity in MOGAT-2 Cell Assay
The inhibitory activity of compounds against human MOGAT-2 in a cell environment is evaluated in this assay. […] The substrate is delivered to cells using as a mixture with DOPC in the form of sonicated vesicles.
Seed the Caco2 cells onto 100 mm dishes to be 80% confluent after 24 hours in complete media (3/1 DMEM: F12+10% FBS+20 mM HEPES+gentamicin). Transfect the cells with hMOGAT-2 plasmid (MOGAT-2-pCDNA3.1-Hygro) using Lipofectamine 2000 (Invitrogen). After a 6 hour exposure to the transfection mixture, wash the cells three times in PBS and then add media. Incubate the cells for an additional 18 hours incubation, trypsinize the cells and serially dilute them into 100 mm dishes. Add complete media+400 μg/ml hygromycin and incubate until clones appear. Isolate and transfer the clones into 24 well dishes and grow to confluence. Prepare the RNAs from these clones using a Qiagen RNAeasy kit. Perform Taqman analysis using an ABI inventoried assay (HS00228262) on a 7900 Sequence Detection System (ABI).
Mix 2-O-hexadecylglycerol (“HDG”, Biosynth Chemistry & Biology, # H-1806, 562.7 μl of 20 mg/ml) and DOPC (14.3 ml of 20 mg/ml) in chloroform in a glass tube; dry first under N2 gas; and then under reduced pressure for additional 30 minutes. Add 20 ml of buffer (150 mM Tris-Cl pH 7.4, 250 mM sucrose, 1 mM EDTA) to the dried HDG/DOPC mixture while sonicating until the solution becomes clear. Plate the Caco2 cells into a poly-D-lysine coated 96-well plate (the “Cell Plate”) at 37° C., 5% CO2 overnight. Remove the growth media and pretreat the cells with the test compound in DMEMF12 (3:1) media (GIBCO 93-0152DK) containing 2% BSA (Sigma) for 30 minutes. Treat the cells with one test compound in 2% BSA DMEMF12 (3:1) media containing 40 μM of oleic acid and 800 μM of 8.9:91.9 (molar ratio) HDG/DOPC for 4 hours. Trypsinize the cells with 50 μl of trypsin solution and add 50 μl of PBS. Immediately freeze the cells on dry ice and store at −20° C. for LC-MS analysis. […]
Assay [2] has as its system TAG absorption. The assay can be described thus: Dog Oil Bolus Model (plasma triglyceride after olive oil). It counts as in vivo, dog (male beagles). The method, then:
Pharmacological Effects in a Dog Oil Bolus Model
Inhibiting MOGAT-2 found in the small intestine may be useful for treating hypertriglyceridemia caused by excessive fat intake. To assess the ability of the exemplified compounds to inhibit TAG absorption, twenty one male beagles (n=7 per treatment group) are enrolled for each study, each dog selected to have a body weight between 9-13 kg. House the dogs in cages with a standard light cycle (12 hours light and 12 hours dark); at room temperature: 72±8° F.; and at 30%-70% relative humidity. Fast the dogs for 16 hours prior to the start of the study, then dose the fasted dogs with vehicle (1% HEC, 0.25%, Tween 80, Antifoam) or one of the test compounds in that vehicle. Bleed the dogs one hour after dosing, (0.5 ml from the jugular vein) for a time 0 sample. Dose the dogs with olive oil (Sigma Catalog#: O-1514, 5 ml/kg) immediately after collection of the time 0 sample. Collect samples into an EDTA tube on ice at 1.5, 2, 3, 5, 7, and 9 hrs post compound/vehicle dosing. Centrifuge the samples at […] for 15 min and analyze (Roche Cat no. 1877771) for plasma total triglyceride using a Roche Hitachi 917. For plasma TAG 18.1—18.1—18.1 measurement, extract the samples and perform LC/MS/MS analysis similarly to that described above in MOGAT-2 Cell Assay using 10 μL of plasma/.
The analyte is the [M+NH4]+ ion of TAG 18:1 18:1 18:1, which has a mass of 902.8 m/z; the internal standard is D5 TAG 16:0 16:0 16:0, which has a mass of 829.8 m/z. Report the ratio of the 603.5 m/z daughter ion of 902.8 m/z (TAG 18:1 18:1 18:1) and the 556.5 m/z daughter ion of 829.8 m/z (D5 TAG 16:0 16:0 16:0 internal standard) changes in TAG 18:1 18:1 18:1 relative amount. Calculate the net plasma TAG AUC from total TAG AUC minus baseline TAG AUC using Graphpad Prism4: (Net AUCTAG=AUCTAG post oil bolus−AUCTAG at 0 hour). The percent inhibition of plasma triglyceride is calculated as follows: the (oil bolus group mean of net TAG AUC−oil bolus group mean of net TAG AUC with compound treatment/oil bolus group mean of net TAG AUC)*100. The final statistic analysis uses Dunnett's method of One way Anova for comparison with the control. All Net TAG AUC values are transformed to ranked averaged AUC for comparison to limit the variability within the studies. The ability of exemplified compounds of the present invention to inhibit MOGAT-2 activity and reduce TAG absorption in vivo can be further evaluated according to this assay.

The mark [3] stands for this setting: 30 mg/kg PO, combined three studies.
The mark [4] stands for this setting: 75 mg/kg PO, combined two studies.

Broadly, the IC50 is the concentration needed to halve the response being measured. A high value points to weaker potency.

Chain of human MOGAT-2 (Q3SYC2 whole entry): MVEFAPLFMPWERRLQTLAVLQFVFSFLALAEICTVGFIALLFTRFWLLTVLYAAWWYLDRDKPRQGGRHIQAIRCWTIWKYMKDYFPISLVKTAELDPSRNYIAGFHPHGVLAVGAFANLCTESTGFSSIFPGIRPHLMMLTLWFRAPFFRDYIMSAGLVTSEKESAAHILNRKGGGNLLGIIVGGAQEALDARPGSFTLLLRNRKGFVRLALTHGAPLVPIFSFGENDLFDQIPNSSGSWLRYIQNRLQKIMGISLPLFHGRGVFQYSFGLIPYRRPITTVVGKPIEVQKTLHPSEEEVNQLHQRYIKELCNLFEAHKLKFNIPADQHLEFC

As to `CS(=O)(=O)N[C@@H](c1ccc(CN2CCOC(c3ccc(F)cc3)C2)cc1)C(F)(F)F` (single isomer, unassigned; isomer 1) [Example 14], half-maximal inhibition in assay [1] (IC50) required 40 nM.

The compound `CS(=O)(=O)N[C@@H](c1ccc(CN2CCOC(c3ccccc3Cl)C2)cc1)C(F)(F)F` (single isomer, unassigned; isomer 2) [Example 5] returned an IC50 in assay [1] of 16 nM.

`C[C@@H](NS(C)(=O)=O)c1ccc(CN2CCOC(c3cccc(C(F)(F)F)c3)C2)cc1` (single isomer, unassigned; isomer 2) [Example 11]: in assay [1], inhibition was half-maximal at 98 nM (IC50).

`C[C@@H](NS(C)(=O)=O)c1ccc(CN2CCO[C@@H](c3ccc(F)cc3)C2)cc1.O=C(O)/C=C\C(=O)O` [Example 2, N-[(1R)-1-(4-{[(2S)-2-(4-Fluorophenyl)morpholin-4-yl]methyl}phenyl)ethyl]methanesulfonamide maleate]: in assay [2] (setting [3]), the “inhibition of 18.1 TAG (plasma TAG 18:1 18:1 18:1)” value was determined as 45% and the “inhibition of TAG absorption (net plasma total TAG AUC)” value came to 43%. For the same compound, in assay [2] (30 mg/kg and 75 mg/kg, combined studies, p<0.05), the “reduction in excursion of postprandial triglycerides” value is “statistically significant (p<0.05) reduction”. In addition, in assay [2] (setting [4]), the “inhibition of 18.1 TAG (plasma TAG 18:1 18:1 18:1)” value is reported as 63% and the “inhibition of TAG absorption (net plasma total TAG AUC)” value was 64%.
